The record followed here is patent EP3964206A1, “COMPOUNDS FOR THE TREATMENT OF COVID-19” (priority 2020, dated 2022).

In general, IC50 refers to the concentration that gives 50% inhibition.

The assay deals with SARS-CoV-2. Kind of assay: microbe, parasite or virus in culture. To be noted: for Emax: read-out: Maximum confluence reached (%). It is filed as cell-based.
The mark [1] stands for this setting: Severe acute respiratory syndrome coronavirus 2, 120 h.

Structures can show the parent of a compound that is named as a salt. Where two headings read alike, the source gives them in different places.

For `COc1cc2c(NC3CCN(C(C)C)CC3)nc(N3CCC(F)(F)CC3)nc2cc1OCCCN1CCCC1` [Compound 95, 2-(4,4-Difluoropiperidin-1-yl)-6-methoxy-N-[1-(propan-2-yl)piperidin-4-yl]-7-[3-(pyrrolidin-1-yl)propoxy]quinazolin-4-amine], the Emax under setting [1] was determined as 31.1%.
Still for that read-out and setting: next, `Cc1c(O)cccc1C(=O)N[C@@H](CSc1ccccc1)[C@H](O)CN1C[C@H]2CCCC[C@H]2C[C@H]1C(=O)NC(C)(C)C` [Compound 31, (3S,4aS,8aS)-N-tert-Butyl-2-[2(R)-hydroxy-3(R)-(3-hydroxy-2-methylbenzamido)-4-(phenylsulfanyl)butyl]perhydroisoquinoline-3-carboxamide methanesulfonate]: 59.5%.
Consider `CC[C@@]1([C@@H]2O[C@@H]([C@H]3O[C@@](O)(COC(=O)Nc4ccccc4)[C@H](C)C[C@@H]3C)C[C@@H]2C)CC[C@H]([C@]2(C)CC[C@]3(C[C@H](O)[C@@H](C)[C@@H]([C@@H](C)[C@@H](OC)[C@H](C)C(=O)O)O3)O2)O1` [Compound 98, 4(S)-[(2S,5R,7S,8R,9S)-2-[(2S,2'R,3'S,5R,5'R)-2-Ethyl-5'-[6(R)-hydroxy-3(S),5(R)-dimethyl-6-(phenylaminocarbonyloxymethyl)tetrahydropyran-2(S)-yl]-3'-methylperhydro-2,2'-bifuran-5-yl]-9-hydroxy-2,8-dimethyl-1,6-dioxaspiro[4.5]dec-7-yl]-3(R)-methoxy-2(S)-methylpentanoic acid sodium salt], for which, under setting [1], half-maximal inhibition (IC50) was put at 3.18 µM and the Emax amounted to 38.2%.
Regarding “(1R,2S,3R)-3-(6-Amino-9H-purin-9-yl)-1,2-cyclopentanediol [Compound 75]”, the “Maximum confluence reached (%)” value is on record as 33.14%. For the same compound, for the setting “read-out: IC50”, the IC50 is 0.36 µM.
As for `Nc1ccc(C(=O)Nc2cccc(-c3nc(N4CCOCC4)c4oc5ncccc5c4n3)c2)cn1` [Compound 104, 6-Amino-N-[3-[4-(4-morpholinyl)pyrido[3',2':4,5]furo[3,2-d]pyrimidin-2-yl]phenyl]pyridine-3-carboxamide], the Emax under setting [1] stood at 35.5%.
With `CCCc1c(-c2ccc(O)cc2)nn(-c2ccc(O)cc2)c1-c1ccc(O)cc1` [Compound 88, 1,3,5-Tris(4-hydroxyphenyl)-4-propyl-1H-pyrazole], under setting [1], the IC50 was 8.3 µM and the Emax came to 48.2%.
As for `CCN(CC)CCOc1ccc2c(c1)C(=O)c1cc(OCCN(CC)CC)ccc1-2` [Compound 84, 2,7-Bis[2-(diethylamino)ethoxy]-9H-fluoren-9-one], the Emax under setting [1] stood at 68.9%.
In the case of `CC(C)COCC(CN(Cc1ccccc1)c1ccccc1)N1CCCC1` (centres unmarked) [Compound 78, 1-[1-(N-Benzylanilino)-3-isobutoxy-2-propyl]pyrrolidine monohydrochloride monohydrate], the Emax under setting [1] came out at 30.4%.
For the compound `CCN(CC)CCCCNc1ncc2cc(-c3c(Cl)cccc3Cl)c(NC(=O)NC(C)(C)C)nc2n1` [Compound 107, 1-tert-Butyl-3-[6-(2,6-dichlorophenyl)-2-[4-(diethylamino)butylamino]pyrido[2,3-d]pyrimidin-7-yl]urea], under setting [1], the IC50 stood at 145 µM and the Emax stood at 34.1%.
With `O=C(NCCN1CCC2(CC1)C(=O)NCN2c1cccc(F)c1)c1ccc2ccccc2c1` [Compound 56, N-[2-[1-(3-Fluorophenyl)-4-oxo-1,3,8-triazaspiro[4.5]dec-8-yl]ethyl]naphthalen-2-carboxamide], the Emax under setting [1] was found to be 98.5%.
Turning to `O=C(CCCN1CCC2(CC1)C(=O)N(Cc1cccc(F)c1)CN2c1ccccc1)c1ccc(F)cc1` [Compound 46, 3-[(3-fluorophenyl)methyl]-8-[4-(4-fluorophenyl)-4-oxobutyl]-1-phenyl-1,3,8-triazaspiro[4.5]decan-4-one], the Emax under setting [1] is 43%.
As to `CC(C)(O)CNc1ncc(-c2ccnc(Nc3ccnc(Cl)c3)n2)c(CC2CC2)n1` [Compound 60, 1-[[2-[(2-chloro-4-pyridinyl)amino]-4'-(cyclopropylmethyl)[4,5'-bipyrimidin]-2'-yl]amino]-2-methyl-2-propanol], the Emax under setting [1] came out at 45.6%.
As for `COc1ccc2cc1Oc1ccc(cc1)C[C@H]1c3cc(c(OC)cc3CCN1C)Oc1c(OC)c(OC)cc3c1[C@H](C2)N(C)CC3` [Compound 79, (1beta)-(S,S)-6,6',7,12-Tetramethoxy-2,2'-dimethylberbaman], the Emax under setting [1] amounted to 99.6%.
As for `c1cncc(CN2CCC(n3ncc4c(N5CCOCC5)nc(-c5ccc6[nH]ccc6c5)nc43)CC2)c1` [Compound 32, 6-(1H-Indol-5-yl)-4-(4-morpholinyl)-1-[1-(pyridin-3-ylmethyl)piperidin-4-yl]-1H-pyrazolo[3,4-d]pyrimidine], the Emax under setting [1] is 67.7%.
In the case of `O=S(=O)(NCC1CC1)c1ccc(Nc2nccc(N3CCCc4cc(O)ccc43)n2)cc1` [Compound 86, N-(Cyclopropylmethyl)-4-[[4-(3,4-dihydro-6-hydroxy-1(2H)-quinolinyl)-2-pyrimidinyl]amino]benzenesulfonamide], the Emax under setting [1] stood at 55%.
Consider `Cc1ccc(NC(=O)Nc2cc(C(F)(F)F)ccc2F)cc1Nc1ccc2c(c1)NC(=O)C2=Cc1ccc[nH]1` [Compound 92, 1-[2-Fluoro-5-(trifluoromethyl)phenyl]-3-[4-methyl-3-[2-oxo-3-(1H-pyrrol-2-ylmethylene)-2,3-dihydro-1H-indol-6-ylamino]phenyl]urea], for which, under setting [1], the IC50 worked out at 5.23 µM and the Emax stood at 75.5%.
On to `O=C(Nc1ccc(Cl)cc1)Nc1ccc(Cl)c(Cl)c1` [Compound 100, 3-(4-Chlorofenil)-1-(3,4-diclorofenil)urea], for which the Emax under setting [1] was 47.2%.
Consider `COc1ccc2c(c1)[C@]1(C[C@H]1c1ccc3c(/C=C/c4ccc(CN5C[C@@H](C)O[C@@H](C)C5)cc4)n[nH]c3c1)C(=O)N2` [Compound 33, (1R,2S)-2-[3-[(E)-2-[4-[(cis-2,6-Dimethylmorpholin-4-yl)methyl]phenyl]vinyl]-1H-indazol-6-yl]-5'-methoxyspiro[cyclopropane-1,3'-indol]-2'(1'H)-one (2E)-but-2-enedioate], for which the Emax under setting [1] turned out to be 105%.
As to `O=[N+]([O-])c1ccc(N/N=C/c2sc(N3CCOCC3)nc2-c2ccccc2)c(S(=O)(=O)Nc2ccccc2Cl)c1` [Compound 73, N-(2-chlorophenyl)-2-[(2E)-2-[(2-morpholin-4-yl-4-phenyl-1,3-thiazol-5-yl)methylidene]hydrazinyl]-5-nitrobenzenesulfonamide], the Emax under setting [1] is 53.9%.
For `CC(=O)[C@]1(O)Cc2c(O)c3c(c(O)c2[C@@H](O[C@H]2C[C@H](N)[C@H](O)[C@H](C)O2)C1)C(=O)c1ccccc1C3=O` [Compound 38, (7S,9S)-9-Acetyl-7-[(3-amino-2,3,6-trideoxy-alpha-L-lyxo-hexopyranosyl)oxy]-7,8,9,10-tetrahydro-6,9,11-trihydroxy-5,12-naphthacenedione hydrochloride], the Emax under setting [1] is 92.6%.
Still for that read-out and setting: next, `OCCNC1CCCc2c1[nH]c1ccc(-c3ccccc3)cc21` (centres unmarked) [Compound 77, 2-[(6-Phenyl-2,3,4,9-tetrahydro-1H-carbazol-1-yl)amino]ethanol]: 50.8%.
The same measure, in the same setting: next, `O=c1cc(N2CCOCC2)oc2c(-c3cccc4c3sc3ccccc34)cccc12` [Compound 69, 8-(Dibenzo[b,d]thien-4-yl)-2-(4-morpholinyl)-4H-1-benzopyran-4-one]: 90.5%.
Consider `Cc1cc(O[C@@H](CCC(F)(F)F)c2ccc(C(=O)NCCC(=O)O)cc2)cc(C)c1-c1ccc(C(C)(C)C)cc1` [Compound 57, N-(4-[(1S)-1-[(4'-tert-Butyl-2,6-dimethylbiphenyl-4-yl)oxy]-4,4,4-trifluorobutyl]benzoyl)-beta-alanine], for which, under setting [1], the Emax came to 39.5%.
Turning to `CN1[C@@H]2CC[C@H]1C[C@@H](OC(=O)c1cc(Cl)cc(Cl)c1)C2` [Compound 36, 3,5-Dichlorobenzoic acid endo-8-methyl-8-azabicyclo[3.2.1]oct-3-yl ester], under setting [1], the IC50 amounted to 43.9 µM and the Emax was 69%.
Turning to `CCN(CC)CCOc1ccc(C(=C(Cl)c2ccccc2)c2ccccc2)cc1` [Compound 82, 2-[4-(2-Chloro-1,2-diphenylvinyl)phenoxy]-N,N-diethylethanamine citrate], the Emax under setting [1] stood at 54.7%.
For `Nc1nc(NC[C@H]2CC[C@H](CNS(=O)(=O)c3cccc4ccccc34)CC2)nc2ccccc12` [Compound 97, N-[[trans-4-[[(4-Amino-2-quinazolinyl)amino]methyl]cyclohexyl]methyl]-1-naphthalenesulfonamide], under setting [1], the Emax is 39.2%.
Take `CN(C)CCC=C1c2ccccc2C=Cc2ccccc21` [Compound 90, 3-(5H-Dibenzo[a,d]cyclohepten-5-ylidene)-N,N-dimethylpropan-1-amine hydrochloride]: under setting [1], the 50% inhibitory concentration (IC50) is 12.1 µM and the Emax came to 70.2%.
As to `Cc1ccc(C(=O)Nc2cccc(C(F)(F)F)c2)cc1Nc1nc(-c2cccnc2)nc2c1cnn2C` [Compound 62, 4-methyl-3-{[1-methyl-6-(3-pyridinyl)-1H-pyrazolo[3,4-d]pyrimidin-4-yl]amino}-N-[3-(trifluoromethyl)phenyl]benzamide], the Emax under setting [1] amounted to 88.4%.
In the case of `CC(C)(C)C(=O)C(=Cc1cccc([N+](=O)[O-])c1)n1cncn1` [Compound 76, 4,4-dimethyl-1-(3-nitrophenyl)-2-(1H-1,2,4-triazol-1-yl)-1-penten-3-one], under setting [1], the IC50 worked out at 4.33 µM and the Emax is 50.4%.
As to `Cc1ccc(NC(=O)c2ccc(CN3CCN(C)CC3)cc2)cc1Nc1nc(-c2cccnc2)cs1` [Compound 50, 4-[(4-methylpiperazin-1-yl)methyl]-N-[4-methyl-3-[(4-pyridin-3-yl-1,3-thiazol-2-yl)amino]phenyl]benzamide], under setting [1], the Emax was 57.1%.
Regarding `Nc1nc(N)c2nc(CNc3ccc(C(=O)N[C@@H](CCC(=O)O)C(=O)O)cc3)cnc2n1` [Compound 10, N-[4-(2,4-diamino-6-pteridinylmethylamino)benzolyl]-L-glutamic acid], the Emax under setting [1] is 72.5%.
As to `CN(C)C(=O)C(CCN1CCC(O)(c2ccc(Cl)cc2)CC1)(c1ccccc1)c1ccccc1` [Compound 110, 4-[4-(4-Chlorophenyl)-4-hydroxypiperidin-1-yl]-N,N-dimethyl-2,2-diphenylbutyramide hydrochloride], the Emax under setting [1] stood at 34.4%.
Turning to `Cc1nc(N)nc(N)c1-c1ccc(Cl)c(Cl)c1` [Compound 41, 5-(3,4-Dichlorophenyl)-6-methylpyrimidine-2,4-diamine], under setting [1], the Emax turned out to be 58%.
